Consider 10 compounds from patent US4440771A, “2-Acetyl quinoline thiosemicarbazones useful in treatment of gonorrhea, malaria or bacterial infections” (The United States of America as represented by the …, priority 1982, dated 1984).

In brackets after ≈: the same amount, converted by molar mass. Where two headings read alike, the source gives them in different places.

For assay [1], the system named is Mycobacterium smegmatis strains. The assay can be described thus: Minimum inhibitory concentration, Mycobacterium smegmatis strains (Test 4). The class given is cell-based. The settings on record: Mycolicibacterium smegmatis. On the procedure:
Compounds were tested against three strains of Mycobacterium smegmatis. The test procedure used was as mentioned by N. E. Morrison [Int. J. of Leprosy 39:34-43 (1971)]. The strain numbers refer to Mycobacterium smegmatis ATCC 607 (I), a DDS-resistant daughter strain (II), and a Rifampin-resistant daughter strain (III), respectively.

The subject of assay [2] is Neisseria meningitidis isolates. The assay can be described thus: Minimum inhibitory concentration, macro broth dilution, Neisseria meningitidis isolates (Test 2). It is filed as cell-based. The settings on record: 24 h. Here is the method: Compounds were tested against five isolates of Neisseria meningitidis. […] The test procedure used was the macro broth dilutuon method in duplicate outlined by J. C. Sherris on pages 414-415. The test compounds and controls were prepared as in Test 1. Ampicillin and penicillin standards were initially diluted as described by J. C. Sherris on pages 411-412 followed by dilution with Mueller-Hinton broth.

Assay [3] deals with Staphylococcus aureus isolates. The assay can be described thus: Minimum inhibitory concentration, macro broth dilution, Staphylococcus aureus isolates (Test 1). Conditions: for MIC: Staphylococcus aureus, 24 h, read-out: Minimum Inhibitory Concentration. It is filed as cell-based. Here is the method: Compounds were tested against five isolates of Staphylococcus aureus. The bacteria used were isolated from patients at the Walter Reed Army Medical Center, Washington, D.C. […] Each compound was dissolved in Dimethyl Sulfoxide (DMSO) (12.8 mg/ml) and then diluted with Mueller-Hinton broth to obtain the desired dilutions. Tubes containing the hightest quantities of DMSO with no compound present were run as controls.

Assay [4] concerns Neisseria gonorrhoeae isolates. The assay can be described thus: Minimum inhibitory concentration, agar dilution, Neisseria gonorrhoeae isolates (Test 3). Conditions: 24 h, read-out: Minimum Inhibitory Concentration.
Procedure: Compounds were tested against 35 Neisseria gonorrhoeae isolates. The bacteria used were provided by the Department of Bacterial Diseases of the Walter Reed Amry Institute of Research. The test procedure used was the agar dilution method in duplicate as outlined by J. S. Sherris on pages 411-412. GC Medium (Difco) with a 2% defined supplement added as described by D. S. Kellogg et al [J. Bact. […] The compounds were dissolved in DMSO (1.0 mg/ml), diluted with GC broth (GC Medium without agar) to the appropriate concentration, and added to the GC Medium at 55°-56° C. The latter was then poured and allowed to solidify. A penicillin standard was also prepared with initial dilutions as described by J. C. Sherris followed by dilutions with GC broth and addition to the GC Medium at 55°-56° C. The inoculum was 1:200 CG broth dilution of a suspension of colony isolates after the suspension was adjusted visually to the turbidity standard described by J. M. Matsen and A. L. Barr on page 422 in "Manual of Clinical Microbiology," 2nd Ed., E. Lennette, E. H. Spaulding, and J. P. Truant, Ed. […] The plates were inoculated with a replicator and incubated at 37° C. under 5-10% carbon dioxide.
The subject of assay [5] is Plasmodium berghei KBG 173. The assay can be described thus: In vivo antimalarial activity against Plasmodium berghei in mice (Test 5). Conditions: C (n/5) = cured of five. Further details: key: C: Mice surviving 60 days are considered cured; active: Activity is defined as a 100% increase in the mean survival time of the treated mice compared to the control group. Here is the method: Compounds were tested against Plasmodium berghei KBG 173 malaria in mice following the procedure described by T. S. Osdene, P. B. Russell, and L. Rane [J. Med. Chem. 10:431-434 (1967)]. Five mice were tested at each dosage level. Mice surviving 60 days are considered cured. Toxicity is defined as a decrease in the mean survival time of the treated mice as compared to the control group. Activity is defined as a 100% increase in the mean survival time of the treated mice compared to the control group.

[6] abbreviates: 24 h, DDS-resistant daughter strain (II).
[7] abbreviates: ATCC607, 24 h, Mycobacterium smegmatis ATCC 607 (I).
The mark [8] stands for this setting: Neisseria meningitidis isolate 7957, read-out: Minimum Inhibitory Concentration.
Where [9] appears, read: Neisseria meningitidis isolate 7990, read-out: Minimum Inhibitory Concentration.
[10] abbreviates: Neisseria meningitidis isolate 8005, read-out: Minimum Inhibitory Concentration.
Where [11] appears, read: Neisseria meningitidis isolate 8006, read-out: Minimum Inhibitory Concentration.
The mark [12] stands for this setting: Neisseria meningitidis isolate 8011, read-out: Minimum Inhibitory Concentration.
Where [13] appears, read: 24 h, Rifampin-resistant daughter strain (III).
Where [14] appears, read: Staphylococcus aureus isolate IV, 24 hours.
The mark [15] stands for this setting: Staphylococcus aureus isolate V, 24 hours.
[16] abbreviates: read-out: Minimum Inhibitory Concentration, Neisseria meningitidis isolate 7957.
Setting [17] is: read-out: Minimum Inhibitory Concentration, Neisseria meningitidis isolate 7990.
Setting [18] is: read-out: Minimum Inhibitory Concentration, Neisseria meningitidis isolate 8006.
Setting [19] is: read-out: Minimum Inhibitory Concentration, Neisseria meningitidis isolate 8011.
[20] abbreviates: Staphylococcus aureus isolate II, 24 hours.
Setting [21] is: Staphylococcus aureus isolate III, 24 hours.

As for `Nc1ccc(S(=O)(=O)c2ccc(N)cc2)cc1` [DDS, reference compound], the MIC was found to be 400 µg/mL (≈ 1610 µM) in assay [1] (setting [6]) and 2 µg/mL (≈ 8.05 µM) in assay [1] (setting [7]).
For the compound `CC1(C)S[C@@H]2[C@H](NC(=O)[C@H](N)c3ccccc3)C(=O)N2[C@H]1C(=O)O` [Ampicillin, reference compound], the MIC in assay [2] (setting [8]) is 0.008 µg/mL (≈ 0.0229 µM); in assay [2] (setting [9]), 0.008 µg/mL (≈ 0.0229 µM); in assay [2] (setting [10]), 0.008 µg/mL (≈ 0.0229 µM); in assay [2] (setting [11]), 0.016 µg/mL (≈ 0.0458 µM); in assay [2] (setting [12]), 0.016 µg/mL (≈ 0.0458 µM).
As for `CCCNC(=S)NN=C(C)c1ccc2ccccc2n1` [Compound 3J, I-Propylaminothiocarboxylic acid 2-[1-(2-quinolyl)ethylidene]hydrazide], the MIC in assay [1] (setting [6]) turned out to be 4 µg/mL (≈ 14 µM); in assay [1] (setting [13]), 2 µg/mL (≈ 6.98 µM); in assay [1] (setting [7]), 1 µg/mL (≈ 3.49 µM).
Regarding `CC(=NNC(=S)N1CCCC1)c1ccc2ccccc2n1` [Compound 3I, Pyrrolidine-1-thiocarboxylic acid 2-[1-(2-quinolyl)ethylidene]hydrazide], the MIC stood at 3 µg/mL (≈ 10.1 µM) in assay [1] (setting [6]); 1.5 µg/mL (≈ 5.03 µM) in assay [1] (setting [13]); 0.6 µg/mL (≈ 2.01 µM) in assay [1] (setting [7]); 0.062 µg/mL (≈ 0.208 µM) in assay [2] (setting [8]); 0.125 µg/mL (≈ 0.419 µM) in assay [2] (setting [9]); 0.125 µg/mL (≈ 0.419 µM) in assay [2] (setting [10]). In addition, the MIC in assay [2] (setting [11]) is 0.125 µg/mL (≈ 0.419 µM); in assay [2] (setting [12]), 0.125 µg/mL (≈ 0.419 µM); in assay [3] (Staphylococcus aureus isolate I, 24 hours), at most 0.25 µg/mL; in assay [3] (setting [14]), at most 0.25 µg/mL; in assay [3] (setting [15]) it was at most 0.25 µg/mL; in assay [4], 0.125 to 0.25 µg/mL (≈ 0.419 to 0.838 µM).
As to `CC(=NNC(=S)N1CC2CCC(CC2)C1)c1ccc2ccccc2n1` [Compound 3G, 3-Azabicyclo[3.2.2]none-3-thiocarboxylic acid 2-[1-(2-quinolyl)ethylidene]hydrazide], the MIC in assay [1] (setting [6]) stood at 15 µg/mL (≈ 42.6 µM); in assay [1] (setting [13]), 10 µg/mL (≈ 28.4 µM); in assay [1] (setting [7]), 4 µg/mL (≈ 11.3 µM); in assay [2] (setting [16]), 0.125 µg/mL (≈ 0.355 µM); in assay [2] (setting [17]) it was 1 µg/mL (≈ 2.84 µM); in assay [2] (read-out: Minimum Inhibitory Concentration, Neisseria meningitidis isolate 8005), 1 µg/mL (≈ 2.84 µM). Also, the MIC in assay [2] (setting [18]) was 0.5 µg/mL (≈ 1.42 µM); in assay [2] (setting [19]) it was 0.5 µg/mL (≈ 1.42 µM); in assay [3] it was 16 µg/mL (≈ 45.4 µM); in assay [4], 0.5 to 1 µg/mL (≈ 1.42 to 2.84 µM). Besides, the “In vivo Antimalarial Activity” value in assay [5] (160 mg/kg) is on record as “active”. Besides, the “Minimum Inhibitory Concentration” value in assay [3] (setting [20]), in assay [3] (setting [21]), in assay [3] (setting [14]) and in assay [3] (setting [15]) was 16 µg/mL throughout.
Consider `CC(=NNC(=S)N1CCN(c2ccccn2)CC1)c1ccc2ccccc2n1` [Compound 3H], for which the MIC in assay [1] (setting [6]) is 10 µg/mL (≈ 25.6 µM); in assay [1] (setting [13]) it was 5 µg/mL (≈ 12.8 µM); in assay [1] (setting [7]) it was 2.5 µg/mL (≈ 6.4 µM); in assay [2] (setting [8]), above 1 µg/mL; in assay [2] (setting [9]), above 1 µg/mL; in assay [2] (setting [10]) it was above 1 µg/mL. For the same compound, the MIC in assay [2] (setting [11]) is above 1 µg/mL; in assay [2] (setting [12]), above 1 µg/mL; in assay [3] (setting [20]) it was 16 µg/mL (≈ 41 µM); in assay [3] (setting [21]), 16 µg/mL (≈ 41 µM); in assay [3] (setting [14]), 16 µg/mL (≈ 41 µM); in assay [4], 0.125 to 0.5 µg/mL (≈ 0.32 to 1.28 µM). For the same compound, the “Minimum Inhibitory Concentration” value in assay [3] (setting [15]) is 16 µg/mL.
Regarding `CO[C@H]1/C=C/O[C@@]2(C)Oc3c(C)c(O)c4c(O)c(c(/C=N/N5CCN(C)CC5)c(O)c4c3C2=O)NC(=O)/C(C)=C\C=C\[C@H](C)[C@H](O)[C@@H](C)[C@@H](O)[C@@H](C)[C@H](OC(C)=O)[C@@H]1C` [Rifampin, reference compound], the values for the MIC in assay [1] (setting [13]) and in assay [1] (setting [7]) were 250 µg/mL (≈ 304 µM) and 1 µg/mL (≈ 1.22 µM), respectively.
On to `CC(=NNC(=S)N(CC(C)C)CC(C)C)c1ccc2ccccc2n1` [Compound 3K, Diisobutylaminothiocarboxylic acid 2-[1-(2-quinolyl)ethylidene]hydrazide], for which the MIC was above 50 µg/mL in assay [1] (setting [6]); above 50 µg/mL in assay [1] (setting [13]); 10 µg/mL (≈ 28 µM) in assay [1] (setting [7]); 0.125 µg/mL (≈ 0.351 µM) in assay [2] (setting [8]); 0.5 µg/mL (≈ 1.4 µM) in assay [2] (setting [9]); 0.5 µg/mL (≈ 1.4 µM) in assay [2] (setting [10]). For the same compound, the MIC in assay [2] (setting [11]) is 1 µg/mL (≈ 2.8 µM); in assay [2] (setting [12]) it was 0.5 µg/mL (≈ 1.4 µM); in assay [3] (setting [20]), 16 µg/mL (≈ 44.9 µM); in assay [3] (setting [21]), 16 µg/mL (≈ 44.9 µM); in assay [3] (setting [14]), 16 µg/mL (≈ 44.9 µM); in assay [4] it was above 1 µg/mL. Also, the “In vivo Antimalarial Activity” value in assay [5] (320 mg/kg) and in assay [5] (640 mg/kg) was “active” in each case. In addition, the “Minimum Inhibitory Concentration” value in assay [3] (setting [15]) was found to be 16 µg/mL.
As to `CC(=NNC(=S)N1CCCCCC1)c1ccc2ccccc2n1` [Compound 3F, 1-Azacycloheptane-1-thiocarboxylic Acid 2-[1-(2-quinolyl)ethylidene]-hydrazide], the MIC in assay [1] (setting [6]) is 15 µg/mL (≈ 45.9 µM); in assay [1] (setting [13]), 10 µg/mL (≈ 30.6 µM); in assay [1] (setting [7]) it was 2.5 µg/mL (≈ 7.66 µM); in assay [2] (setting [8]) it was below 0.062 µg/mL; in assay [2] (setting [9]), 0.125 µg/mL (≈ 0.383 µM); in assay [2] (setting [10]), 0.25 µg/mL (≈ 0.766 µM). The MIC in assay [2] (setting [11]) was 0.25 µg/mL (≈ 0.766 µM); in assay [2] (setting [12]), 0.25 µg/mL (≈ 0.766 µM); in assay [3] (setting [20]), 16 µg/mL (≈ 49 µM); in assay [3] (setting [21]), 16 µg/mL (≈ 49 µM); in assay [3] (setting [14]) it was 16 µg/mL (≈ 49 µM); in assay [4] it was 0.25 to 0.5 µg/mL (≈ 0.766 to 1.53 µM). Further, the “Minimum Inhibitory Concentration” value in assay [3] (setting [15]) was determined as 16 µg/mL.
In the case of `CC1(C)S[C@@H]2[C@H](NC(=O)Cc3ccccc3)C(=O)N2[C@H]1C(=O)O` [Penicillin, reference compound], the MIC is 0.031 µg/mL (≈ 0.0927 µM) in assay [2] (setting [16]); 0.031 µg/mL (≈ 0.0927 µM) in assay [2] (setting [17]); 0.031 µg/mL (≈ 0.0927 µM) in assay [2] (setting [18]); 0.031 µg/mL (≈ 0.0927 µM) in assay [2] (setting [19]); 0.062 to 16 µg/mL (≈ 0.185 to 47.8 µM) in assay [4].
